From patent US10669296B2, “LXR agonists and uses thereof” (Rgenix, Inc., priority 2014, dated 2020)

System: ApoE
Assay: ApoE gene expression analysis by qRT-PCR in MeWo cancer cells
Assay type: cell-based
Settings: 48 h; for Emax at 1 µM / Emax at 10 µM: read-out: ApoE gene expression in relation to GW3965 at 1 μM (100%)
Experimental: Cancer cells (MeWo) were treated in presence of drug or control (DMSO) at indicated concentrations for 48 h. RNA was extracted from whole cell lysates using the Total RNA Purification Kit (17200, Norgen, Thorold, Canada). 600 ng of total RNA was then reverse transcribed into cDNA using the Verso cDNA Synthesis Kit (AB-1453/B, Fisher Scientific). 6 ng of the resulting cDNA was then mixed with SYBR green PCR Master Mix (4309155, Applied Biosystems) and the appropriate primers. Each reaction was performed in quadruplicate, and mRNA expression was quantified by performing real-time PCR amplification using a StepOne Plus Real-Time PCR System (Applied Biosystems). GAPDH was used as an endogenous control for normalization. EC50 values were calculated using Prism6 software and plotting expression values versus drug concentration. The following primers were used: [table] The results are shown in relation to GW3965 ApoE expression at 1 μM (i.e. 100%).

EC50 (Homo sapiens, MeWo) [nM] | EC50 [nM] | Compound | Emax at 1 µM (Homo sapiens, MeWo, 1 μM) [%] | Emax at 10 µM (Homo sapiens, MeWo, 10 μM) [%] | ApoE gene expression in relation to GW3965 at 1 μM (100%) (1 μM) | ApoE gene expression in relation to GW3965 at 1 μM (100%) (10 μM)
– | – | CS(=O)(=O)NC(=O)Cc1cccc(OCCCN(Cc2cccc(C(F)(F)F)c2Cl)CC(c2ccccc2)c2ccccc2)c1 [Compound 2, 2-{3-[3-({[2-chloro-3-(trifluoromethyl)phenyl]methyl}(2,2-diphenylethyl)amino)propoxy]phenyl}-N-methanesulfonylacetamide] | > 40 | > 40 | – | –
– | – | O=C(O)c1cccc(OCCCN(Cc2cccc(C(F)(F)F)c2Cl)CC(c2ccccc2)c2ccccc2)c1 [Compound 3, 3-[3-({[2-chloro-3-(trifluoromethyl)phenyl]methyl}(2,2-diphenylethyl)amino)propoxy]benzoic acid] | > 40 | < 40 | – | –
< 1000 | – | CC(C)(O)c1cccc(OCCCN(Cc2cccc(C(F)(F)F)c2Cl)CC(c2ccccc2)c2ccccc2)c1 [Compound 4, 2-{3-[3-({[2-chloro-3-(trifluoromethyl)phenyl]methyl}(2,2-diphenylethyl)amino)propoxy]phenyl}propan-2-ol] | > 40 | > 40 | – | –
< 300 | – | O=C1Cc2cc(OCCCN(Cc3cccc(C(F)(F)F)c3Cl)CC(c3ccccc3)c3ccccc3)ccc2CO1 [Compound 6, 6-[3-({[2-chloro-3-(trifluoromethyl)phenyl]methyl}(2,2-diphenylethyl)amino)propoxy]-3,4-dihydro-1H-2-benzopyran-3-one] | > 80 | > 40 | – | –
< 1000 | – | CS(=O)(=O)c1cccc(OCCCN(Cc2cccc(C(F)(F)F)c2Cl)CC(c2ccccc2)c2ccccc2)c1 [Compound 7, {[2-chloro-3-(trifluoromethyl)phenyl]methyl}(2,2-diphenylethyl)[3-(3-methanesulfonylphenoxy)propyl]amine] | > 80 | > 40 | – | –
– | – | O=C(O)Cc1cccc(OCCCN(Cc2cccc(OC(F)(F)F)c2)CC(c2ccccc2)c2ccccc2)c1 [Compound 24] | > 40 | > 40 | – | –
– | – | O=C(O)Cc1cccc(OCCCN(Cc2cccc(OC(F)(F)C(F)F)c2)CC(c2ccccc2)c2ccccc2)c1 [Compound 25, 2-(3-{3[(2,2-diphenylethyl)({[3-(1,1,2,2-tetrafluoroethoxy)phenyl]methyl})amino]propoxy}phenyl)acetic acid] | > 40 | < 40 | – | –
– | – | O=C(O)Cc1cccc(OCCCN(Cc2cccc3c2OC(F)(F)O3)CC(c2ccccc2)c2ccccc2)c1 [Compound 26, 2[3-(3-{[(2,2-difluoro-2H-1,3-benzodioxol-4-yl)methyl](2,2-diphenylethyl)amino}propoxy)phenyl]acetic acid] | < 40 | < 40 | – | –
– | – | C[C@H](CCO[C@@H]1CCCN(S(C)(=O)=O)C1)N(Cc1cccc(C(F)(F)F)c1Cl)CC(c1ccccc1)c1ccccc1 [Compound 30, {[2-chloro-3-(trifluoromethyl)phenyl]methyl}(2,2-diphenylethyl)[(2R)-4-{[(3R)-1-methanesulfonylpiperidin-3-yl]oxy}butan-2-yl]amine] | > 40 | > 80 | – | –
< 3000 | – | CS(=O)(=O)c1cc(OCCCN(Cc2cccc(C(F)(F)F)c2Cl)CC(c2ccccc2)c2ccccc2)cc(F)c1C(=O)O [Compound 35, 4-[3-({[2-chloro-3-(trifluoromethyl)phenyl]methyl}(2,2-diphenylethyl)amino)propoxy]-2-fluoro-6-methanesulfonylbenzoic acid] | < 40 | > 40 | – | –
< 300 | – | CC(CCN(Cc1cccc(C(F)(F)F)c1Cl)CC(c1ccccc1)c1ccccc1)Oc1cc(F)c(CO)c(S(C)(=O)=O)c1 (stereo not drawn) [Compound 59, (4-{[4-({[2-chloro-3-(trifluoromethyl)phenyl]methyl}(2,2-diphenylethyl)amino)butan-2-yl]oxy}-2-fluoro-6-methanesulfonylphenyl)methanol] | > 40 | > 40 | – | –
< 300 | – | CC(C)(O)c1c(F)cc(OCCCN(Cc2cccc(C(F)(F)F)c2Cl)CC(c2ccccc2)c2ccccc2)cc1S(C)(=O)=O [Compound 60, 2-{4-[3-({[2-chloro-3-(trifluoromethyl)phenyl]methyl}(2,2-diphenylethyl)amino)propoxy]-2-fluoro-6-methanesulfonylphenyl}propan-2-ol] | > 40 | > 80 | – | –
– | – | CS(=O)(=O)N1CC[C@H](OCCCN(Cc2cccc(C(F)(F)F)c2Cl)CC(c2ccccc2)c2ccccc2)C1 [Compound 61, {[2-chloro-3-(trifluoromethyl)phenyl]methyl}(2,2-diphenylethyl)(3-{[(3S)-1-methanesulfonylpyrrolidin-3-yl]oxy}propyl)amine] | > 40 | > 80 | – | –
< 1000 | – | CS(=O)(=O)N1CC(OCCCN(Cc2cccc(C(F)(F)F)c2Cl)CC(c2ccccc2)c2ccccc2)C1 [Compound 62, {[2-chloro-3-(trifluoromethyl)phenyl]methyl} (2,2-diphenylethyl){3-[(1-methanesulfonylazetidin-3-yl)oxy]propyl}amine] | > 80 | > 80 | – | –
– | < 3000 | CS(=O)(=O)N1CCC[C@@H](OCCCN(Cc2cccc(C(F)(F)F)c2Cl)CC(c2ccccc2)c2ccccc2)C1 [Compound 63, {[2-chloro-3-(trifluoromethyl)phenyl]methyl}(2,2-diphenylethyl)(3-{[(3R)-1-methanesulfonylpiperidin-3-yl]oxy}propyl)amine] | – | – | +++ (“+++” > 80% ApoE induction) | +++ (“+++” > 80% ApoE induction)
< 1000 | – | COC(=O)c1c(F)cc(OCCCN(Cc2cccc(C(F)(F)F)c2Cl)CC(c2ccccc2)c2ccccc2)cc1S(C)(=O)=O [Compound 64, methyl 4-[3-({[2-chloro-3-(trifluoromethyl)phenyl]methyl}(2,2-diphenylethyl)amino)propoxy]-2-fluoro-6-methanesulfonylbenzoate] | > 80 | > 80 | – | –
< 1000 | – | CS(=O)(=O)c1cc(OCCCN(Cc2cccc(C(F)(F)F)c2Cl)CC(c2ccccc2)c2ccccc2)cc(F)c1C=O [Compound 65, 4-[3-({[2-chloro-3-(trifluoromethyl)phenyl]methyl}(2,2-diphenylethyl)amino)propoxy]-2-fluoro-6-methanesulfonyl-benzaldehyde] | > 80 | > 80 | – | –
– | < 3000 | CS(=O)(=O)N1CCC[C@H](OCCCN(Cc2cccc(C(F)(F)F)c2Cl)CC(c2ccccc2)c2ccccc2)C1 [Compound 66, {[2-chloro-3-(trifluoromethyl)phenyl]methyl}(2,2-diphenylethyl)(3-{[(3S)-1-methanesulfonylpiperidin-3-yl]oxy}propyl)amine] | – | – | +++ (“+++” > 80% ApoE induction) | +++ (“+++” > 80% ApoE induction)
– | – | C[C@@H](CCOc1cc(F)c(CO)c(S(C)(=O)=O)c1)N(Cc1cccc(C(F)(F)F)c1Cl)CC(c1ccccc1)c1ccccc1 [Compound 71, {4-[(3S)-3-({[2-chloro-3-(trifluoromethyl)phenyl]methyl}(2,2-diphenylethyl)amino)butoxy]-2-fluoro-6-methanesulfonylphenyl}methanol] | < 40 | – | – | –
– | – | CS(=O)(=O)c1cc(OCCCN(Cc2cccc(C(F)(F)F)c2F)CC(c2ccccc2)c2ccccc2)cc(F)c1CO [Compound 72, (4-{3-[(2,2-diphenylethyl)({[2-fluoro-3-(trifluoromethyl)phenyl]methyl})amino]propoxy}-2-fluoro-6-methanesulfonylphenyl)methanol] | > 80 | > 80 | – | –
– | – | CS(=O)(=O)c1cc(OCCCN(Cc2cccc(C(F)(F)F)c2)CC(c2ccccc2)c2ccccc2)cc(F)c1CO [Compound 73, (4-{3-[(2,2-diphenylethyl)({[3-(trifluoromethyl)phenyl]methyl})amino]propoxy}-2-fluoro-6-methanesulfonylphenyl)methanol] | > 80 | > 80 | – | –
– | – | CS(=O)(=O)c1cc(OCCCN(Cc2cccc(OC(F)(F)F)c2)CC(c2ccccc2)c2ccccc2)cc(F)c1CO [Compound 74, (4-{3-[(2,2-diphenylethyl)({[3-(trifluoromethoxy)phenyl]methyl})amino]propoxy}-2-fluoro-6-methanesulfonylphenyl)methanol] | > 40 | > 40 | – | –
– | – | CS(=O)(=O)c1cc(OCCCN(Cc2ccc(F)c(C(F)(F)F)c2)CC(c2ccccc2)c2ccccc2)cc(F)c1CO [Compound 75, (4-{3-[(2,2-diphenylethyl)({[4-fluoro-3-(trifluoromethyl)phenyl]methyl})amino]propoxy}-2-fluoro-6-methanesulfonylphenyl)methanol] | > 40 | > 80 | – | –
– | – | CS(=O)(=O)c1cc(OCCCN(Cc2cccc(C(F)(F)F)c2Cl)CC(c2ccccc2)C2CCCCC2)cc(F)c1CO (stereo not drawn) [Compound 78, {4-[3-({[2-chloro-3-(trifluoromethyl)phenyl]methyl}(2-cyclohexyl-2-phenylethyl)amino)propoxy]-2-fluoro-6-methanesulfonylphenyl}methanol] | > 40 | – | – | –
